# Reference: US11116771B2, “G protein-coupled receptor (GPCR) modulation by imipridones” (Oncoceutics, Inc., priority 2016, dated 2021)
# Entries after “also recorded” stand apart in the source; their conditions may differ. Like-named read-outs stand apart in the source and are kept apart here.
# Columns and labels:
# [1] = tested on: Staphylococcus aureus ATCC 33591; assay: MIC by micro-broth dilution, S. aureus ATCC 33591; assay type: cell-based
# [2] = tested on: Staphylococcus aureus ATCC 700699; assay: MIC by micro-broth dilution, S. aureus ATCC 700699; assay type: cell-based
# [3] = tested on: NCI60 cancer cell line panel; assay: NCI60 cancer cell line panel; assay type: cell-based; details: NCI60 panel (FIG. 16)
# human cancer cells = assay: Viability of human cancer cells at 72 hours post-treatment; assay type: cell-based; details: for Relative Potency*: relative to the potency of ONC201, viability of human cancer cells at 72 hours post-treatment
# [4] = tested on: Staphylococcus aureus ATCC 29213; assay: MIC by micro-broth dilution, S. aureus ATCC 29213; assay type: cell-based
# HCT116 cells = assay: Anticancer efficacy in HCT116 cells; assay type: cell-based, human; details: HCT116 cells
# GPR132 = molecular target: T1, GPR132 (Homo sapiens, UniProt Q9UNW8); assay: β-arrestin recruitment GPCR reporter assay, GPR132; assay type: cell-based
# T1 sequence (Q9UNW8 1-380): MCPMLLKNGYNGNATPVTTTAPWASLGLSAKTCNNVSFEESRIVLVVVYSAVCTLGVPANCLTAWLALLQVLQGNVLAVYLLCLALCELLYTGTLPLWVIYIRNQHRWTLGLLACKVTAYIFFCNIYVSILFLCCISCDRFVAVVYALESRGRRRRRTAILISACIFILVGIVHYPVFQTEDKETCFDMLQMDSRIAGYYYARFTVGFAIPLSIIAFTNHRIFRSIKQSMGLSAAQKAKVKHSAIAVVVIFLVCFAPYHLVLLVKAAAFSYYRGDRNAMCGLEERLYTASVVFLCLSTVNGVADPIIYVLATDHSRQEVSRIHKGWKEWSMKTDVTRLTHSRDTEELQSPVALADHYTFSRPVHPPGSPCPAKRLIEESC
# DRD5 = DRD5 (Homo sapiens, UniProt P21918); assay: β-arrestin recruitment GPCR reporter assay, DRD5; assay type: cell-based; details: arrestin recruitment reporter assay
# Sequence of DRD5 (P21918 whole entry): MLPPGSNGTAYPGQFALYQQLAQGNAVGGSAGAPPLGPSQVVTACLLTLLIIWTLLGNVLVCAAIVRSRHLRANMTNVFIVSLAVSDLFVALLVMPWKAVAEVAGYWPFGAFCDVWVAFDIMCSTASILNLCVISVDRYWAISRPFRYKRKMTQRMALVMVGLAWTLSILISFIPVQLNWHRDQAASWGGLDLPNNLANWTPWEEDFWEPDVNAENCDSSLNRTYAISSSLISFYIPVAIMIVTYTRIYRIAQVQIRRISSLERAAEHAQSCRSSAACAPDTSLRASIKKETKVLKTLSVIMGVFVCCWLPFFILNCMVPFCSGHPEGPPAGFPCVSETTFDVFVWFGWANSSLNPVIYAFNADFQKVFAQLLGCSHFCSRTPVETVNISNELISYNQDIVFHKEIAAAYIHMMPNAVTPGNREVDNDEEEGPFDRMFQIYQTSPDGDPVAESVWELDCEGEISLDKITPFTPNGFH
# [5] = Staphylococcus aureus, ATCC29213, 24 h
# [6] = Staphylococcus aureus, ATCC33591, 24 h
# [7] = Staphylococcus aureus, ATCC700699, 48 h
compound,measurement,setting,value
"COc1cccc(OC)c1C(=O)N[C@@H]1C(=O)N2[C@@H]1SC(C)(C)[C@@H]2C(=O)O [Methicillin, reference compound]",MIC,"[1]; ATCC33591, Staphylococcus aureus (ATCC 33591), methicillin resistant, read-out: MIC",> 100 µg/mL
same,MIC90,"[1]; Staphylococcus aureus, ATCC33591, ATCC 33591, 24 hours, read-out: MIC90",> 100 µg/mL
same,MIC,"[1]; Staphylococcus aureus, ATCC33591, ATCC 33591, 24 hours, read-out: MIC95",> 100 µg/mL
same,MIC99,"[1]; Staphylococcus aureus, ATCC33591, ATCC 33591, 24 hours, read-out: MIC99",> 100 µg/mL
same,MIC,"[1]; Staphylococcus aureus, ATCC33591, ATCC 33591, 24 hours, read-out: MIC, Visual",> 100 µg/mL
same,MIC,"[2]; ATCC700699, MDR Staphylococcus aureus (ATCC 700699), read-out: MIC",> 100 µg/mL
same,MIC90,"[2]; Staphylococcus aureus, ATCC700699, ATCC 700699 (48 hours), read-out: MIC90",> 100 µg/mL
same,MIC,"[2]; Staphylococcus aureus, ATCC700699, ATCC 700699 (48 hours), read-out: MIC95",> 100 µg/mL
same,MIC99,"[2]; Staphylococcus aureus, ATCC700699, ATCC 700699 (48 hours), read-out: MIC99",> 100 µg/mL
same,MIC,"[2]; Staphylococcus aureus, ATCC700699, ATCC 700699 (48 hours), read-out: MIC, Visual",> 100 µg/mL
O=C1C2=C(CCN(Cc3ccccc3)C2)N2CCN=C2N1Cc1cccs1 [ONC203],anti-cancer efficacy across tumor types,[3],inactive negative control
same,Relative Potency*,human cancer cells,C (C Indicates a potency decrease of >2-fold of ONC201)
O=C1C2=C(CCN(Cc3ccccc3)C2)N2CCN=C2N1CCc1ccccc1 [ONC204],Relative Potency*,human cancer cells,C (C Indicates a potency decrease of >2-fold of ONC201)
O=C1C2=C(CCN(Cc3ccccc3)C2)N2CCN=C2N1CCN1CCN(Cc2ccccc2)CC1 [ONC205],Relative Potency*,human cancer cells,C (C Indicates a potency decrease of >2-fold of ONC201)
Cc1ccccc1CN1C(=O)C2=C(CCNC2)N2CCN=C12 [ONC207],MIC95,"[4]; ATCC 29213, 24 hours",>100 µg/mL
same,MIC99,"[4]; ATCC 29213, 24 hours",>100 µg/mL
same,"MIC, Visual","[4]; ATCC 29213, 24 hours",>100 µg/mL
same,MIC90,"[1]; ATCC 33591, 24 hours",>100 µg/mL
same,MIC95,"[1]; ATCC 33591, 24 hours",>100 µg/mL
same,MIC99,"[1]; ATCC 33591, 24 hours",>100 µg/mL
same,"MIC, Visual","[1]; ATCC 33591, 24 hours",>100 µg/mL
same,MIC90,[2]; ATCC 700699 (48 hours),>100 µg/mL
same,MIC95,[2]; ATCC 700699 (48 hours),>100 µg/mL
same,MIC99,[2]; ATCC 700699 (48 hours),>100 µg/mL
same,"MIC, Visual",[2]; ATCC 700699 (48 hours),>100 µg/mL
same,Relative Potency*,human cancer cells,B (B Indicates potency that is within 2-fold of ONC201)
Cc1ccccc1CN1C(=O)C2=C(CCN(C)C2)N2CCN=C12 [ONC208],Relative Potency*,human cancer cells,B (B Indicates potency that is within 2-fold of ONC201)
Cc1ccccc1CN1C(=O)C2=C(CCN(CCc3ccccc3)C2)N2CCN=C12 [ONC209],Relative Potency*,human cancer cells,B (B Indicates potency that is within 2-fold of ONC201)
O=C1C2=C(CCN(Cc3ccccc3)C2)N2CCN=C2N1Cc1cc(F)cc(F)c1 [ONC210],Relative Potency*,human cancer cells,B (B Indicates potency that is within 2-fold of ONC201)
O=C1C2=C(CCN(Cc3ccccc3)C2)N2CCN=C2N1Cc1ccc(Cl)c(Cl)c1 [ONC211],Relative Potency*,human cancer cells,B (B Indicates potency that is within 2-fold of ONC201)
Cc1ccccc1CN1C(=O)C2=C(CCN(CCCN)C2)N2CCN=C12 [ONC216],Relative Potency*,human cancer cells,B (B Indicates potency that is within 2-fold of ONC201)
O=C1C2=C(CCN(Cc3ccccc3)C2)N2CCN=C2N1Cc1ccccc1F [ONC217],Relative Potency*,human cancer cells,C (C Indicates a potency decrease of >2-fold of ONC201)
Cc1cc(F)ccc1CN1C(=O)C2=C(CCN(Cc3ccccc3)C2)N2CCN=C12 [ONC218],Relative Potency*,human cancer cells,A (A Indicates a potency increase of >2-fold of ONC201)
O=C1C2=C(CCN(Cc3ccccc3)C2)N2CCN=C2N1Cc1ccc(Cl)cc1Cl [ONC219],Relative Potency*,human cancer cells,A (A Indicates a potency increase of >2-fold of ONC201)
COc1ccc(CN2C(=O)C3=C(CCN(Cc4ccccc4)C3)N3CCN=C23)cc1 [ONC220],Relative Potency*,human cancer cells,A (A Indicates a potency increase of >2-fold of ONC201)
O=C1C2=C(CCNC2)N2CCN=C2N1Cc1ccc(C(F)(F)F)cc1 [ONC221],Relative Potency*,human cancer cells,A (A Indicates a potency increase of >2-fold of ONC201)
O=C1C2=C(CCN(Cc3ccccc3)C2)N2CCN=C2N1CC1CCON1 (stereo not shown) [ONC222],Relative Potency*,human cancer cells,C (C Indicates a potency decrease of >2-fold of ONC201)
Cc1ccc(CN2C(=O)C3=C(CCN(Cc4ccccc4)C3)N3CCN=C23)cc1 [ONC223],Relative Potency*,human cancer cells,A (A Indicates a potency increase of >2-fold of ONC201)
O=C1C2=C(CCN(Cc3ccccc3)C2)N2CCN=C2N1CCN1CCOCC1 [ONC224],Relative Potency*,human cancer cells,A (A Indicates a potency increase of >2-fold of ONC201)
O=C1C2=C(CCN(Cc3ccccc3)C2)N2CCN=C2N1Cc1ccc(C(F)(F)F)cc1F [ONC225],Relative Potency*,human cancer cells,A (A Indicates a potency increase of >2-fold of ONC201)
O=C1C2=C(CCN(Cc3ccccc3)C2)N2CCN=C2N1Cc1cccnc1 [ONC226],Relative Potency*,human cancer cells,A (A Indicates a potency increase of >2-fold of ONC201)
O=C1C2=C(CCN(Cc3ccc(C(F)(F)F)cc3)C2)N2CCN=C2N1Cc1ccc(C(F)(F)F)cc1 [ONC227],Relative Potency*,human cancer cells,B (B Indicates potency that is within 2-fold of ONC201)
O=C1C2=C(CCN(Cc3ccc(F)cc3)C2)N2CCN=C2N1Cc1ccc(C(F)(F)F)cc1 [ONC228],Relative Potency*,human cancer cells,A (A Indicates a potency increase of >2-fold of ONC201)
COc1ccc(CN2CCC3=C(C2)C(=O)N(Cc2ccc(C(F)(F)F)cc2)C2=NCCN23)cc1 [ONC229],Relative Potency*,human cancer cells,B (B Indicates potency that is within 2-fold of ONC201)
O=C(CCCN1CCC2=C(C1)C(=O)N(Cc1ccc(C(F)(F)F)cc1)C1=NCCN12)c1ccc(F)cc1 [ONC230],Relative Potency*,human cancer cells,A (A Indicates a potency increase of >2-fold of ONC201)
O=C1C2=C(CCN(Cc3cccnc3)C2)N2CCN=C2N1Cc1ccc(C(F)(F)F)cc1 [ONC231],Relative Potency*,human cancer cells,A (A Indicates a potency increase of >2-fold of ONC201)
Cc1csc(CN2CCC3=C(C2)C(=O)N(Cc2ccc(C(F)(F)F)cc2)C2=NCCN23)n1 [ONC232],Relative Potency*,human cancer cells,B (B Indicates potency that is within 2-fold of ONC201)
O=C1C2=C(CCN(Cc3cnccn3)C2)N2CCN=C2N1Cc1ccc(C(F)(F)F)cc1 [ONC233],Relative Potency*,human cancer cells,B (B Indicates potency that is within 2-fold of ONC201)
O=C1C2=C(CCN(Cc3ccsc3)C2)N2CCN=C2N1Cc1ccc(C(F)(F)F)cc1 [ONC236],completeness of response,HCT116 cells,"better than ONC201 but not ONC212; also recorded: same as ONC212, and better than ONC201"
same,"GPCR activity, GPR132",GPR132,highly selective GPR132 agonist
same,Relative Potency*,human cancer cells,A (A Indicates a potency increase of >2-fold of ONC201)
O=C1C2=C(CCN(CC(O)c3ccccc3)C2)N2CCN=C2N1Cc1ccc(C(F)(F)F)cc1 (stereo not shown) [ONC237],"GPCR activity, DRD5",DRD5,DRD5 antagonist
same,"GPCR activity, GPR132",GPR132,GPR132 agonist
same,IC50,"human cancer cells; Homo sapiens, cell line not stated, read-out: anticancer efficacy IC50",31.2 µM
same,Relative Potency*,human cancer cells,C (C Indicates a potency decrease of >2-fold of ONC201)
"CN[C@H](CC(C)C)C(=O)N[C@H]1C(=O)N[C@@H](CC(N)=O)C(=O)N[C@H]2C(=O)N[C@H]3C(=O)N[C@H](C(=O)N[C@H](C(=O)O)c4cc(O)cc(O)c4-c4cc3ccc4O)[C@H](O)c3ccc(c(Cl)c3)Oc3cc2cc(c3O[C@@H]2O[C@H](CO)[C@@H](O)[C@H](O)[C@H]2O[C@H]2C[C@](C)(N)[C@H](O)[C@H](C)O2)Oc2ccc(cc2Cl)[C@H]1O [Vancomycin, reference compound]",MIC90,[4]; [5],3.13 µg/mL
same,MIC99,[4]; [5],6.25 µg/mL
same,MIC,"[4]; Staphylococcus aureus, ATCC29213, 24 h, read-out: MIC95",3.13 µg/mL
same,MIC,"[4]; Staphylococcus aureus, ATCC29213, 24 h, read-out: MIC, Visual",3.12 µg/mL
same,MIC90,[1]; [6],0.39 µg/mL
same,MIC99,[1]; [6],0.78 µg/mL
same,MIC,"[1]; Staphylococcus aureus, ATCC33591, 24 h, read-out: MIC95",0.39 µg/mL
same,MIC,"[1]; Staphylococcus aureus, ATCC33591, 24 h, read-out: MIC, Visual",0.391 µg/mL
same,MIC90,[2]; [7],12.5 µg/mL
same,MIC99,[2]; [7],25 µg/mL
same,MIC,"[2]; Staphylococcus aureus, ATCC700699, 48 h, read-out: MIC95",25 µg/mL
same,MIC,"[2]; Staphylococcus aureus, ATCC700699, 48 h, read-out: MIC, Visual",25 µg/mL
